Key:
cellulites = test: PDT treatment of cellulites with Temoporfin solution by Mesotherapy and diode laser (Example 1); type: in vivo, patient; details: 1 session per area, followed by appropriate physiotherapy / complementary session (ultrasound, lymph-drainage, electro-stimulation); evaluation after 30 days
Protocol: A patient having cellulites is treated with Temoporfin in several sessions. The variables in this treatment program are as follows: • 1.—A determination of the grade of cellulites in the patient. • 2.—A determination of the dose and concentration of Temoporfin and to confirm that it produces an improvement on the cellulites, and to further insure that it is possible to apply it directly by Mesotherapy without the need of systemic introduction. • 3.—A determination as to the potency of Temoporfin based on the time of application to the time of laser application; and • 4.—A determination as to accompanying treatments. In this EXAMPLE, the patient is administered the Temoporfin solution as follows: In all sequences, the treatment consists 1 session only per area to be treated, and, if necessary, it is repeated in 30 days. In general, it was observed that only 1 session followed by appropriate physiotherapy, a complementary session (like ultrasound, lymph-drainage, isotonic and isometric electro-stimulation), was usually sufficient in more than 80% of the patients. If it was necessary to repeat it, an evaluation is done after 30 days. Table 2 presents further information as to the stage of cellulite, concentration of mTHPC (Temoporfin), dose, surface area being treated; strength, power level and time of laser radiation application. [table] […]

[1] = cited from earlier work
[2] = without light activation; cited from earlier work

Oc1cccc(-c2c3nc(c(-c4cccc(O)c4)c4ccc([nH]4)c(-c4cccc(O)c4)c4nc(c(-c5cccc(O)c5)c5ccc2[nH]5)CC4)C=C3)c1 [Temoporfin]
patients in whom only 1 session was usually sufficient (cellulites): more than 80 % of the patients
solubility in triglycerides [1]: not soluble in triglycerides
effect in the dark [2]: totally innocuous and inactive in the dark

Reference: patent US20070031482A1, “PDT treatment method for cellulites and cosmetic use” (CeramOptec Industries, Ind., priority 2005, published 2007)
